Results taken from article PMC9610943, “Truncated Pleurocidin Derivative with High Pepsin Hydrolysis Resistance to Combat Multidrug-Resistant Pathogens” (Pharmaceutics, 2022).
Where no end group is shown, it is not given here.

What was measured:
E. coli CP131 (mcr-3) = assay: microbe, parasite or virus in culture; assay type: cell-based; details: CP131 (mcr-3)
Protocol: (§1) S. aureus ATCC 29213, E. coli ATCC 25922, S. enteritidis ATCC 13076 and A. baumannii ATCC 19609 were obtained from the American Type Culture Collection (ATCC). The remaining strains used in the experiment were all preserved strains in our laboratory. All strains were cultured in nutrient broth overnight to the logarithmic phase at 37 °C prior to each experiment.
(§2) The MICs of all drugs were determined by micro-broth dilution method according to CLSI 2018 guidelines. Briefly, a single colony of the bacterial strain was transferred to 1 mL of Mueller Hilton broth (MHB) and overnight at 37 °C and then 10 μL were cultured in a new 1 mL medium for 4 to 6 h, and then the bacterial culture at the logarithmic phase was diluted to 1 × 10^6 CFUs/mL. The assay was performed by adding 100 μL of each peptide solution at various concentrations (0.25 to 128 μg/mL) and 100 μL of diluted bacterial culture to different wells of a 96-well microtiter plate (Corning, NY, USA). After incubation at 37 °C for 16 to 18 h and then read its MIC value. MIC value is defined as the lowest drug concentration without visible bacteria.

[1] = test system: S. enteritidis ATCC 13076; assay: microbe, parasite or virus in culture; assay type: cell-based; details: ATCC 13076
Protocol: as §1, §2

[2] = test system: E. coli B2 (blaNDM-5 + mcr-1); assay: microbe, parasite or virus in culture; assay type: cell-based; details: B2 (blaNDM-5 + mcr-1)
Protocol: as §1, §2

[3] = test system: S. aureus 215 (cfr + LZD^R); assay: microbe, parasite or virus in culture; assay type: cell-based; details: S. aureus 215 (cfr + LZD^R); micro-broth dilution CLSI 2018, MHB, 37 °C, 16 to 18 h
Protocol: as §1, §2

E. coli G92 (mcr-1) = assay: microbe, parasite or virus in culture; assay type: cell-based; details: G92 (mcr-1)
Protocol: as §1, §2

E. coli B3-1 (tet(X4)) = assay: microbe, parasite or virus in culture; assay type: cell-based; details: B3-1 (tet(X4))
Protocol: as §1, §2

A. baumannii ATCC 19609 = assay: microbe, parasite or virus in culture; assay type: cell-based; details: ATCC 19609
Protocol: as §1, §2

E. coli C3 (blaNDM-1) = assay: microbe, parasite or virus in culture; assay type: cell-based; details: C3 (blaNDM-1)
Protocol: as §1, §2

S. aureus G16 (RIF^R) = assay: microbe, parasite or virus in culture; assay type: cell-based; details: S. aureus G16 (RIF^R); micro-broth dilution CLSI 2018, MHB, 37 °C, 16 to 18 h
Protocol: as §1, §2

[4] = test system: E. faecalis A4 (VRE, VanA); assay: microbe, parasite or virus in culture; assay type: cell-based; details: A4 (VRE, VanA)
Protocol: as §1, §2

E. coli ATCC 25922 = assay: microbe, parasite or virus in culture; assay type: cell-based; details: ATCC 25922
Protocol: as §1, §2

S. aureus ATCC 29213 = assay: microbe, parasite or virus in culture; assay type: cell-based; details: ATCC 29213
Protocol: as §1, §2

[5] = test system: P. aeruginosa (VIM + tmexCD1-torJ1); assay: microbe, parasite or virus in culture; assay type: cell-based; details: VIM + tmexCD1-torJ1
Protocol: as §1, §2

E. coli G6 (blaNDM-5) = assay: microbe, parasite or virus in culture; assay type: cell-based; details: G6 (blaNDM-5)
Protocol: as §1, §2

E. coli 1F28 (tet(X4)) = assay: microbe, parasite or virus in culture; assay type: cell-based; details: 1F28 (tet(X4))
Protocol: as §1, §2

P. aeruginosa PA14 = assay: microbe, parasite or virus in culture; assay type: cell-based; details: PA14
Protocol: as §1, §2

MRSA T144 [6] = assay type: cell-based, Staphylococcus aureus
Protocol: as §2
(§3) Then, the antibacterial activity of the peptides affected by different temperatures and pH were determined according to the determination steps of MICs test.
(§4) In MHB medium, Na^+, K^+, Mg^2+ and Ca^2+ with the final concentrations of 10 mM, fetal bovine serum, plasma or DMEM medium (Hyclone, Logan, UT, USA) with the final concentrations of 10% was added, and then MIC values were measured to evaluate the effects of different cations, serum and plasma on the antibacterial activity of peptides.
(§5) The peptide was incubated with protease (pepsin, trypsin and papain) (Solarbio, Beijing, China) with a final concentration of 1 mg/mL at 37 °C for 1 h, then the mixture of peptide and protease was heated at 100 °C for 30 min, then centrifuged at 13,000× g for 30 min, and the supernatant was taken for MIC determination.

[7] = test system: P. cibarius HNCF44W (blaNDM-1+ tet(X6)); assay: organism not typed; assay type: cell-based
Protocol: as §1, §2

E. coli B2 = assay type: cell-based
Protocol: as §2, §3, §4, §5

MRSA T144 [8] = assay: microbe, parasite or virus in culture; assay type: cell-based, Staphylococcus aureus; details: T144
Protocol: as §1, §2

MRSA 1530 = assay: microbe, parasite or virus in culture; assay type: cell-based, Staphylococcus aureus; details: 1530
Protocol: as §1, §2

GWKSFFKKWKHVWK [GK-2]
MIC (E. coli CP131 (mcr-3)): 2 µg/mL
MIC [1]: 4 µg/mL
MIC [2]: 2 µg/mL
MIC [3]: 4 µg/mL
MIC (E. coli G92 (mcr-1)): 2 µg/mL
MIC (E. coli B3-1 (tet(X4))): 4 µg/mL
MIC (A. baumannii ATCC 19609): 8 µg/mL
MIC (E. coli C3 (blaNDM-1)): 2 µg/mL
MIC (S. aureus G16 (RIF^R)): 8 µg/mL
MIC [4]: 16 µg/mL
MIC (E. coli ATCC 25922): 8 µg/mL
MIC (S. aureus ATCC 29213): 4 µg/mL
MIC [5]: 16 µg/mL
MIC (E. coli G6 (blaNDM-5)): 2 µg/mL
MIC (E. coli 1F28 (tet(X4))): 16 µg/mL
MIC (P. aeruginosa PA14): 16 µg/mL
MIC after treatment at 121 °C (MRSA T144 [6]; T144): 4 µg/mL
MIC in DMEM (10%) (MRSA T144 [6]; T144): 4 µg/mL
MIC in Plasma (10%) (MRSA T144 [6]; T144): 4 µg/mL
MIC in Serum (10%) (MRSA T144 [6]; T144): 8 µg/mL
MIC in presence of Ca^2+ (MRSA T144 [6]; T144): >128 µg/mL
MIC in presence of K^+ (MRSA T144 [6]; T144): 4 µg/mL
MIC in presence of Mg^2+ (MRSA T144 [6]; T144): 4 µg/mL
MIC in presence of Na^+ (MRSA T144 [6]; T144): 2 µg/mL
MIC, Control (MRSA T144 [6]; T144): 8 µg/mL
MIC after Papain treatment (MRSA T144 [6]; T144, 1 h): >128 µg/mL
MIC after Pepsin treatment (MRSA T144 [6]; T144, 1 h): 64 µg/mL
MIC after Trypsin treatment (MRSA T144 [6]; T144, 1 h): >128 µg/mL
MIC after treatment at 40 °C (MRSA T144 [6]; T144, 1 h): 2 µg/mL
MIC after treatment at 60 °C (MRSA T144 [6]; T144, 1 h): 4 µg/mL
MIC after treatment at 80 °C (MRSA T144 [6]; T144, 1 h): 2 µg/mL
MIC after treatment at 100 °C (MRSA T144 [6]; T144, 1 h): 4 µg/mL
MIC after treatment at pH 2 (MRSA T144 [6]; T144, 1 h, pH 2): 4 µg/mL
MIC after treatment at pH 4 (MRSA T144 [6]; T144, 1 h, pH 4): 4 µg/mL
MIC after treatment at pH 6 (MRSA T144 [6]; T144, 1 h, pH 6): 4 µg/mL
MIC after treatment at pH 8 (MRSA T144 [6]; T144, 1 h, pH 8): 4 µg/mL
MIC after treatment at pH 10 (MRSA T144 [6]; T144, 1 h, pH 10): 4 µg/mL
MIC after treatment at pH 12 (MRSA T144 [6]; T144, 1 h, pH 12): 4 µg/mL
MIC [7]: 8 µg/mL
MIC after treatment at 121 °C (E. coli B2; B2): 2 µg/mL
MIC in DMEM (10%) (E. coli B2; B2): 4 µg/mL
MIC in Plasma (10%) (E. coli B2; B2): 0.5 µg/mL
MIC in Serum (10%) (E. coli B2; B2): 4 µg/mL
MIC in presence of Ca^2+ (E. coli B2; B2): >128 µg/mL
MIC in presence of K^+ (E. coli B2; B2): 2 µg/mL
MIC in presence of Mg^2+ (E. coli B2; B2): 32 µg/mL
MIC in presence of Na^+ (E. coli B2; B2): 2 µg/mL
MIC, Control (E. coli B2; B2): 2 µg/mL
MIC after Papain treatment (E. coli B2; B2, 1 h): >128 µg/mL
MIC after Pepsin treatment (E. coli B2; B2, 1 h): 128 µg/mL
MIC after Trypsin treatment (E. coli B2; B2, 1 h): >128 µg/mL
MIC after treatment at 40 °C (E. coli B2; B2, 1 h): 2 µg/mL
MIC after treatment at 60 °C (E. coli B2; B2, 1 h): 4 µg/mL
MIC after treatment at 80 °C (E. coli B2; B2, 1 h): 2 µg/mL
MIC after treatment at 100 °C (E. coli B2; B2, 1 h): 2 µg/mL
MIC after treatment at pH 2 (E. coli B2; B2, 1 h, pH 2): 2 µg/mL
MIC after treatment at pH 4 (E. coli B2; B2, 1 h, pH 4): 4 µg/mL
MIC after treatment at pH 6 (E. coli B2; B2, 1 h, pH 6): 2 µg/mL
MIC after treatment at pH 8 (E. coli B2; B2, 1 h, pH 8): 2 µg/mL
MIC after treatment at pH 10 (E. coli B2; B2, 1 h, pH 10): 2 µg/mL
MIC after treatment at pH 12 (E. coli B2; B2, 1 h, pH 12): 2 µg/mL
MIC (MRSA T144 [8]): 8 µg/mL
MIC (MRSA 1530): 32 µg/mL
